This is an account of results in ChEMBL document CHEMBL1142409, “Synthetic ligands that activate and inhibit a quorum-sensing regulator in Pseudomonas aeruginosa” (Bioorg Med Chem Lett, 2008).

Some results are limits rather than exact numbers.

The target of one experiment is T1, (Pseudomonas aeruginosa) (UniProt Q9RMS5).
T1 sequence (whole entry): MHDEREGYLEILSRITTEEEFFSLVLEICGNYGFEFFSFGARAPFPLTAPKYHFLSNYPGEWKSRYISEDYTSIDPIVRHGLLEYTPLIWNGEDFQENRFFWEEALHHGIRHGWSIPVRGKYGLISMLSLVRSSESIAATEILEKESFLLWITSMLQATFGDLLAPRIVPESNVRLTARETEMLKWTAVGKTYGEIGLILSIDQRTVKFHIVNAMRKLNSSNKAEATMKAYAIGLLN
Nature of the experiment: Agonist activity at Pseudomonas aeruginosa QscR expressed in Escherichia coli assessed as production of beta-galactosidase at 5 uM relative to dodecanoyl homoserine lactone. The class given is functional.

Experiment [1] concerns the target T2, Transcriptional activator protein LasR (Pseudomonas aeruginosa (strain ATCC 15692 / PAO1 / 1C / PRS 101 / LMG12228)) (UniProt P25084).
T2 sequence (whole entry): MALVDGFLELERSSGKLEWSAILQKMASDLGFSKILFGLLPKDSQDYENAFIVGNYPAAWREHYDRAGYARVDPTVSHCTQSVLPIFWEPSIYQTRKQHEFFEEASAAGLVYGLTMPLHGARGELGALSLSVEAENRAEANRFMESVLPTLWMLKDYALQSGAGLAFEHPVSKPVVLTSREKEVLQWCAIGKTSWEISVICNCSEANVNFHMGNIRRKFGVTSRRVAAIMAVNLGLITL
Put plainly: Inhibition of Pseudomonas aeruginosa LasR. More on the design: concentration or dose not given beside the values. As to conditions: concentration not given here.

Experiment [2] has as its target T3, PhzR (Pseudomonas aeruginosa) (UniProt Q9RMS5).
T3 sequence (whole entry): T1 sequence (whole entry)
Nature of the experiment: Antagonist activity at Pseudomonas aeruginosa QscR expressed in Escherichia coli assessed as inhibition of dodecanoyl homoserine lactone induced production of beta-galactosidase at 5 uM. The class given is functional.

The target of experiment [3] is T3, PhzR (Pseudomonas aeruginosa). Nature of the experiment: Inhibition of binding of Pseudomonas aeruginosa QscR to DNA at 200 uM in presence of 3-oxo-dodecanoyl -L-homoserine lactone by electromobility shift assay.
Experiment [4] concerns the target QscR (Pseudomonas aeruginosa). Put plainly: Antagonist activity at Pseudomonas aeruginosa QscR expressed in Escherichia coli assessed as inhibition of dodecanoyl homoserine lactone induced production of beta-galactosidase.

As for `CCCCCCCCCC(=O)CC(=O)N[C@H]1CCOC1=O`, at (Pseudomonas aeruginosa), the Activity worked out at 109%.
For `O=C(Cc1cccc(Br)c1)N[C@H]1CCOC1=O`, the results for the inhibition in experiment [1] and in experiment [2] were 50% and 71%, respectively.
With `CCCCCCCCCC(=O)N[C@H]1CCOC1=O`, the Activity on (Pseudomonas aeruginosa) was 104%.
As to `O=C(N[C@H]1CCOC1=O)c1ccc(Br)cc1`, the inhibition (as a rule, the drop in the measured response relative to a control, in per cent) is 71% in experiment [3] and 78% in experiment [2]. Besides, in experiment [4], the half-maximal inhibitory concentration (IC50) (usually the concentration that gives 50% inhibition) was 180 nM.
For `O=C(Cc1cccc([N+](=O)[O-])c1)N[C@H]1CCOC1=O`, the figures for the inhibition in experiment [1] and in experiment [2] were 50% and 71%, respectively.
As for `CCCCCCCCCCCS(=O)(=O)N[C@H]1CCOC1=O`, the Activity at (Pseudomonas aeruginosa) stood at 51%.
On the same count and under the same terms, in the case of `CCCCCCCCCCCC(=O)CC(=O)N[C@H]1CCOC1=O` it was 78%.
As for `O=C(Cc1cccc(I)c1)N[C@H]1CCOC1=O`, the figures for the inhibition in experiment [1] and in experiment [2] were 50% and 70%, respectively.
For the molecule `O=C(CC(=O)N[C@@H]1CCOC1=O)Cc1ccccc1`, at (Pseudomonas aeruginosa), the Activity was 59%.
Consider `O=C(Cc1cccc(Cl)c1)N[C@H]1CCOC1=O`, for which the values for the inhibition in experiment [1] and in experiment [2] were 50% and 73%, respectively.
With `CC(C)(C)OC(=O)Nc1ccc(CC(=O)N[C@H]2CCOC2=O)cc1`, the Activity at (Pseudomonas aeruginosa) is 61%.
Same read-out and setting: in the case of `CCCc1ccc(C(=O)CCC(=O)N[C@H]2CCOC2=O)cc1` it was 54%.
In experiment [1], `O=C(CCc1ccc(Br)cc1)N[C@H]1CCOC1=O` showed an inhibition of more than 50%. Further, on (Pseudomonas aeruginosa), the Activity turned out to be 64%.
For the molecule `CCCCCC(=O)CC(=O)N[C@H]1CCOC1=O`, the inhibition in experiment [1] was more than 50%. Also, the Activity on (Pseudomonas aeruginosa) amounted to 74%.
For `CC(C)(C)OC(=O)NCc1ccc(C(=O)N[C@H]2CCOC2=O)cc1`, the inhibition is 59% in experiment [3] and 77% in experiment [2]. Moreover, in experiment [4], the IC50 worked out at 200 nM.
Regarding `CCOc1ccc(CC(=O)N[C@H]2CCOC2=O)cc1`, the inhibition came to 82% in experiment [3] and 75% in experiment [2]. Further, in experiment [4], the IC50 was determined as 160 nM.
Turning to `O=C(Cc1ccc(-c2ccccc2)cc1)N[C@H]1CCOC1=O`, the inhibition worked out at 100% in experiment [3], 20% in experiment [1] and 88% in experiment [2]. Moreover, the IC50 in experiment [4] worked out at 30 nM.
Turning to `CCCCCCCC(=O)N[C@H]1CCOC1=O`, the inhibition in experiment [1] is more than 50%. Besides, the Activity at (Pseudomonas aeruginosa) turned out to be 59%.
As to `CCCCCCCCc1ccc(C(=O)N[C@H]2CCOC2=O)cc1`, the inhibition in experiment [3] amounted to 100%; in experiment [2], 76%.
